No end group written: not given here. *: point of attachment. FITC = O=C1OC2(c3ccc(O)cc3Oc3cc(O)ccc32)c2ccc(NC(=S)*)cc21
T1: purified VPS4B (Vacuolar Protein Sorting 4) (UniProt O75351 1-444)
T1 chain: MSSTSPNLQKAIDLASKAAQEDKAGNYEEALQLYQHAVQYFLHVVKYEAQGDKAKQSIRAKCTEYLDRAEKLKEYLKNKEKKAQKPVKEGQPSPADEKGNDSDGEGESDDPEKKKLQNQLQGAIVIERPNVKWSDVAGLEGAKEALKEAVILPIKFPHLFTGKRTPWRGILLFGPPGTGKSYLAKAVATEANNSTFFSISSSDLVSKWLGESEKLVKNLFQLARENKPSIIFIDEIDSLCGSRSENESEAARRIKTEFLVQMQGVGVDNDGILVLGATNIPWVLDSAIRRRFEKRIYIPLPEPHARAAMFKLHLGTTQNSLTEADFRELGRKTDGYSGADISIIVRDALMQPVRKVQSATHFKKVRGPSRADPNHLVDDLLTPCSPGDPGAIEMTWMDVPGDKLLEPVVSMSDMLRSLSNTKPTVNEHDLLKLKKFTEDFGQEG

T2: purified VPS4B (Vacuolar Protein Sorting 4) (UniProt O75351 1-444)
T2 construct: VPS4B expressed as a His-tagged Sumo construct in a pRSet B vector; The results speak of 'VPS4'; VPS4B is the only VPS4 protein whose purification is described; source: E. coli Overexpress C41, purified (Ni-NTA)
T2 sequence (looked up): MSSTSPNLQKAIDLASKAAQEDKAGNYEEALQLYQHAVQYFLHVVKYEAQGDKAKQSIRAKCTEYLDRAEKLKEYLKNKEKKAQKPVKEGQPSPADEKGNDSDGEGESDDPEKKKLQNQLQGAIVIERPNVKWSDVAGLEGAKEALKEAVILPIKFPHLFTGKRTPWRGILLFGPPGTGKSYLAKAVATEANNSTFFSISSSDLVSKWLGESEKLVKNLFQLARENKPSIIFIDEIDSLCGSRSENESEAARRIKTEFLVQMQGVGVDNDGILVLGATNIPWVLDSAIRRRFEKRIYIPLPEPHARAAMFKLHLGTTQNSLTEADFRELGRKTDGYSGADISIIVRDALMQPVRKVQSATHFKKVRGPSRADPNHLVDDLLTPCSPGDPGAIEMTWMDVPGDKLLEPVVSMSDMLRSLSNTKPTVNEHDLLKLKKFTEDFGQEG


Columns and labels:
[1] = system: A53T a-syn expressing HEK293 cells; assay: Cell Titer-Glo cell viability, A53T a-syn expressing cells; type: cell-based, human; details: A53T a-syn cells
Procedure: Oligonucleotides encoding the specific peptides were synthesized and individually cloned into the pLJM1 nGFP lentiviral vector. HEK293T cells were infected with individual constructs, and cell viability was assessed using Cell Titer-Glo luminescent assay (Promega) at 72 h post infection.
Cells were trypsinized from subconfluent cultures as described earlier, suspended in culture media, and then seeded into triplicate wells of a 96-well plate (100 µl/well) at a density of 1.5 × 10^4 cells per well with standard culture conditions of 5% CO2 at 37 °C. Cells were infected with lentivirus expressing peptide at a MOI of 5 for 72 h or transfected with plasmid for 72 h. Cell Titer-Glo reagent was added to each well (30 µL), according to the manufacturer’s protocol and […].

VPS4 = details: motif-domain interaction; read-out: CHMP2B-VPS4 interaction affinity; cited from earlier work
From the text: CHMP2B has been reported to bind to Vacuolar Protein Sorting 4 (VPS4), an AAA-type adenosine triphosphatase. This interaction is mediated by the C-terminal MIM on CHMP2B and a Microtubule Interacting and Trafficking (MIT) domain on VPS4. […] However, we also noted that many CHMP proteins can self-interact and have been reported to multimerize, which may contribute to their function. In particular, CHMP2B can self-interact[30] and is thought to polymerize at the budding of membranes during endosome formation. ...

A53T a-syn = A53T a-syn protein level in HEK293 cells by immunoblot; type: cell-based, human
Procedure: Infected or transfected cells were scraped from six-well dishes and lysed with lysis buffer (50 mM Tris-HCl pH 7.4, 1% Nonidet P-40, 150 mM NaCl, 1 mM EDTA, 1× protease inhibitor mixture (Sigma)) for 30 min at 4 °C. The insoluble pellet was removed following a 10,000 rpm spin for 5 min at 4 °C. Lysates were analyzed by SDS-PAGE/immunoblot using 4–20% Mini-PROTEAN Tris-glycine gels (Bio-Rad), transferred to polyvinylidene fluoride (PVDF) membranes, and blocked in 5% milk containing PBS-Tween-20 (0.1%) for 1 h. PVDF membranes were then incubated with specified primary antibodies followed by incubation with horseradish peroxidase-conjugated secondary antibodies (anti-mouse HRP-linked, Cell Signaling, catalog #7076, 1:5000; anti-rabbit HRP-linked, Cell Signaling, catalog #7074, 1:5000) and detected using enhanced chemiluminescence (GE Healthcare). Anti-a-syn antibody (clone 42) was obtained from BD Biosciences (catalog #610787, 1:1000). Anti-LAMP1 antibody was obtained from Abcam (catalog #ab24170, 1:500). Anti-beta-actin antibody was obtained from Cell Signaling (13E5) (catalog #4970, 1:1000). Anti-CD63 antibody was obtained from R&D Systems (catalog #MAB50482-SP, 1:1000).

[2] = target: T1, purified VPS4B (Vacuolar Protein …); assay: FP
[3] = target: T2, purified VPS4B (Vacuolar Protein …); assay: not stated; 'our affinity measurements' of PDpep1.3 with VPS4 (Fig. S1G); details: both partners purified
[4] = target: T3, purified recombinant CHMP2B (UniProt Q9UQN3 1-213); assay: fluorescence polarisation; FITC-peptide constant at 50 nM, CHMP2B serially diluted 1:1 from 30 μM; 50 mM Na phosphate pH 5.5 or 20 mM Na acetate pH 5.5, 0.5 mM TCEP, 0.005% Triton-X-100; 30 min at room temperature; details: both partners purified
T3 construct: CHMP2B from the vector pET-DEST42 CHMP2B; eluted as a 26 kDa monomer; Removal of tags is not described; source: E. coli Overexpress C41, inclusion bodies, purified (Ni-NTA in guanidine HCl, dialysis, SEC)
T3 sequence (Q9UQN3 whole entry): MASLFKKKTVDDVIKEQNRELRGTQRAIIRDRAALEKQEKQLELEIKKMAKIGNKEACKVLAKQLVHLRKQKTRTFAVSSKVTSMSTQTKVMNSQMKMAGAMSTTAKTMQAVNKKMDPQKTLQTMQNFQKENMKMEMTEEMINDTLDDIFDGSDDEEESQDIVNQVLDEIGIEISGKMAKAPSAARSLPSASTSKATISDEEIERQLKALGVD

| Kd [2] [µM] | Kd [3] [µM] | Kd [4] [µM] | Molecule | Effect on cell survival/viability [1] | Kd (VPS4) [µM] | Effect on A53T a-syn protein level (A53T a-syn) |
| --- | --- | --- | --- | --- | --- | --- |
|  |  |  | CHMP2B: CHarged Multivesicular body Protein 2B, full-length | rescues a-syn cytotoxicity | 178 | reduces a-syn levels |
| ~200 | > 100 | 1.8 | {FITC}-DEEIERQLKALG (stretch of the C-terminal region (MIM) of CHMP2B; also called FITC-PDpep1.3; source: synthetic peptide (LifeTein)) [FITC-labeled PDpep1.3 peptide] |  |  |  |

From PMC10115881, “Disrupting the α-synuclein-ESCRT interaction with a peptide inhibitor mitigates neurodegeneration in preclinical models of Parkinson’s disease” (Nature Communications, 2023)
